# Measurements as given in US20250353873A1, “COMPOUNDS AND METHODS FOR MODULATING APOE EXPRESSION” (Ionis Pharmaceuticals, Inc., priority 2024, published 2025).
# Values joined by “and” are separate entries in the source; they are usually repeats but may differ in a detail not shown here. Equal values may be shown once. Strand notation (5' to 3'): a small letter for the sugar, then the base; units joined by * are phosphorothioate-linked, units joined directly phosphodiester-linked; [ ] holds rarer units or linkages, { } end groups; capitals alone tell only the bases. [ms] = mesyl phosphoramidate linkage; e = 2'-O-(2-methoxyethyl) (MOE); k = constrained ethyl (cEt); [5mC] = 5-methylcytosine; d = 2'-deoxy (DNA)
# Columns and labels:
# human APOE RNA [1] = assay: Activity in APOE C57BL/6NTac-Apoeem7250 knock-in mice, single ICV bolus, 8 weeks (Example 11); type: in vivo; settings: for APOE RNA (% control) Cortex / APOE RNA (% control) Spinal Cord: single ICV bolus 300 μg, 8 weeks post treatment, normalized to mouse Ppia; for reduction of human APOE RNA in the cortex: APOE knock-in mouse model, 8 weeks post administration, assay of Example 11
# Outline: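 Cortical and spinal cord human APOE RNA quantified by RT-qPCR 8 weeks after a single 300 μg ICV dose in knock-in mice, Ppia-normalized. Values are percent of levels in PBS-treated animals.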
# human APOE RNA [2] = assay: Activity in APOE C57BL/6NTac-Apoeem7250 knock-in mice, single ICV bolus, 16 weeks (Example 12); type: in vivo; settings: single ICV bolus 300 μg, 16 weeks post treatment, normalized to mouse Ppia
# Outline: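 A single 300 μg intracerebroventricular dose was given, with PBS-treated mice as reference; cortical and spinal cord tissue was taken 16 weeks later. RT-qPCR quantified human APOE RNA, Ppia-normalized, expressed relative to PBS animals (% control).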
# human APOE RNA [3] = assay: Dose-dependent inhibition of human APOE RNA in HepG2 cells, electroporation, 24 hours (Example 6); type: cell-based
# Outline: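 IC50 derived from APOE RNA levels, given as percent of untreated control after GAPDH normalization (probe sets RTS3073 and RTS104). Oligonucleotides were delivered at multiple concentrations by electroporation into HepG2 cells seeded at 50,000 per well.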
# human APOE RNA [4] = assay: Activity in APOE 1549 knock-in mice, single ICV bolus, 2 weeks (Example 7); type: in vivo; settings: single ICV bolus of 300 μg, two weeks post treatment
# Description: Modified oligonucleotides described above were tested in APOE knock-in mice.
# APOE knock-in mice (model 41549) were obtained from Taconic Biosciences. APOE knock-in mice were divided into groups of 2 mice each. Each mouse received a single intracerebroventricular (ICV) bolus of 300 μg of modified oligonucleotide. A group of 4 mice received a single ICV bolus with PBS as a negative control.
# Two weeks post treatment, mice were sacrificed and RNA was extracted from cortical brain tissue and spinal cord for quantitative real-time RT-PCR analysis of RNA expression of APOE using primer probe set RTS3073 (described herein above). APOE RNA levels were normalized to mouse Ppia. Mouse Ppia was amplified using primer probe set m_cyclo24 (forward sequence TCGCCGCTTGCTGCA, designated herein as SEQ ID NO: 16; reverse sequence ATCGGCCGTGATGTCGA, designated herein as SEQ ID NO: 17; probe sequence […], designated herein as SEQ ID NO: 18). Results are presented as percent human APOE RNA relative to the amount of human APOE RNA in PBS treated animals, (% control). Each experiment is identified in separate tables below.
# human APOE RNA [5] = assay: Activity in APOE C57BL/6NTac-Apoeem7250 knock-in mice, single ICV bolus, 2 weeks (Example 9); type: in vivo; settings: single ICV bolus 300 μg
# Description: Modified oligonucleotides described above were tested in the APOE knock-in mouse model C57BL/6NTac-Apoeem7250_B-A02(APOE)Tac, a heterozygous APOE mouse model. APOE knock-in mice used in this study express the full-length human APOE gene knocked into the mouse locus. Humanization of APOE gene was done via CRISPR/Cas-9-mediated gene editing, allowing for generation of a model with constitutive expression of human APOE gene. Targeting strategy was based on NCBI transcripts NM_009696.4 (mouse) and NM_000041.4 (human). Mouse genomic sequence from exon 1 to exon 4 (including the 5′ and 3′ UTRs) was replaced with the human counterpart from 141 bp upstream of exon 1 to 28 bp downstream of exon 4. A plasmid allowing expression of Cas9 mRNA, specific gRNA, and the puromycin resistance cassette, and a plasmid containing the homology regions of the mouse APOE gene, and the replaced human region were co-transfected into the Taconic Biosciences C57BL/6N Tac ES cell line. Homologous recombination clones were isolated using positive puromycin selection, and humanized allele was obtained after Cas9-mediated gene editing. C57BL/6NTac-Apoeem7250_B-A02(APOE)Tac mice were used in the in vivo experiments described below.
# APOE C57BL/6NTac-Apoeem7250 knock-in mice were divided into groups of 3 mice each. Each mouse received a single ICV bolus of 300 μg of modified oligonucleotide. A group of 3 mice received a single ICV bolus with PBS as a negative control.
# Two weeks post treatment, mice were sacrificed and RNA was extracted from cortical brain tissue and spinal cord for quantitative real-time RT-PCR analysis of RNA expression of APOE using human primer probe set RTS3073 (described herein above). APOE RNA levels were normalized to mouse Ppia. Mouse Ppia was amplified using primer probe set m_cyclo24 (described herein above). Results are presented as percent human APOE RNA relative to the amount of human APOE RNA in PBS treated animals, (% control).
# human APOE RNA [6] = assay: Activity in APOE C57BL/6NTac-Apoeem7250 knock-in mice, single ICV bolus, 4 weeks (Example 10); type: in vivo; settings: single ICV bolus 300 μg
# Outline: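 Human APOE RNA, quantified by real-time RT-PCR with RTS3073 and normalized to mouse Ppia, was read in cortical brain and spinal cord 4 weeks post dosing. Dosing was a single ICV bolus of 300 μg per knock-in mouse; values are % of PBS-treated animals.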
# BJAB cells [7] = settings: known behaviour in the assay; cited from earlier work
# human APOE RNA [8] = assay: Dose-dependent inhibition of human APOE RNA in HepG2 cells, electroporation, 50,000 cells per well, RT-PCR normalized to GAPDH (Example 4, Tables 8-10); type: cell-based; settings: HepG2, electroporation, 16-hour treatment
# Outline: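 Readout is percent APOE RNA versus untreated controls, measured by RT-PCR (primer probe set RTS3073) and normalized to human GAPDH. Modified oligonucleotides were delivered by electroporation at varying doses into HepG2 cells plated at 50,000 per well.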
# human APOE RNA [9] = assay: Activity in APOE C57BL/6NTac-Apoeem7250 knock-in mice, single ICV bolus, 20 weeks (Example 13); type: in vivo; settings: single ICV bolus 300 μg, 20 weeks post treatment, normalized to mouse Ppia
# Outline: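 Cortical and spinal cord RNA was assayed by real-time RT-PCR for human APOE, normalized to mouse Ppia and reported as percent of PBS controls. Tissue was taken twenty weeks after one 300 μg intracerebroventricular bolus in APOE knock-in mice, 4 per group.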
# BJAB cells [10] = tested on: BJAB cells
# Description: Human APOE modified oligonucleotides were tested for potential immunostimulatory properties in an in vitro human BJAB activation assay.
# Human Burkitt lymphoma B cells, BJAB cells (DSMZ, Cat #ACC 757) were cultured in RPMI1640 medium containing 20% fetal bovine serum at 37° C. and 5% CO2. Cells were maintained at a density of 0.5-0.7×10^6 cells per milliliter. Cells were transferred to 50 mL conical Falcon tubes and centrifuged at 330 RCF for 5 minutes before being resuspended at a concentration of 7.5×10^4 cells per milliliter in RPMI culture medium containing penicillin and streptomycin. 50 μL of the cell suspension was added to a v-bottom tissue culture treated 96-well microplate. 11 μl of 10× concentrated modified oligonucleotides was then added to the plate for a final concentration of 1.6 μM and incubated for 24 hours at 37° C. and 5% CO2.
# After a treatment period of 24 hours, total RNA was isolated from the cells and CCL22 RNA levels were measured by quantitative real-time RT-PCR. CCL22 RNA levels were measured by human primer-probe set RTS49260 (forward sequence [sequence], designated herein as SEQ ID NO: 19; reverse sequence [sequence], designated herein as SEQ ID NO: 20; probe sequence [sequence], designated herein as SEQ ID NO: 21). CCL22 RNA levels were normalized to total RNA content, as measured by GAPDH. Human GAPDH was measured using the human primer-probe set RTS104 (forward sequence [sequence], designated herein as SEQ ID NO: 10; reverse sequence [sequence], designated herein as SEQ ID NO: 11; probe sequence [sequence], designated herein as SEQ ID NO: 12). Levels of CCL22 RNA is presented log fold increase of CCL22, relative to untreated control cells (UTC). The assignment of the immunostimulatory properties of the test compounds is based on the immunostimulatory properties of the internal control compounds in each assay.
# [11] = Cortex, C57BL/6NTac-Apoeem7250 knock-in mice, 4 weeks (Table 21)
# [12] = Cortex, C57BL/6NTac-Apoeem7250 knock-in mice, 4 weeks (Table 22)
# [13] = Spinal Cord, C57BL/6NTac-Apoeem7250 knock-in mice, 4 weeks (Table 21)
# [14] = Spinal Cord, C57BL/6NTac-Apoeem7250 knock-in mice, 4 weeks (Table 22)
Substance,APOE RNA (% control) Cortex (human APOE RNA [1]) [% control],APOE RNA (% control) Spinal Cord (human APOE RNA [1]) [% control],APOE RNA (% control) Cortex (human APOE RNA [2]) [% control],APOE RNA (% control) Spinal Cord (human APOE RNA [2]) [% control],IC50 (human APOE RNA [3]) [nM],APOE RNA (% UTC) (human APOE RNA [3]; 5 nM),APOE RNA (% UTC) (human APOE RNA [3]; 13 nM),APOE RNA (% UTC) (human APOE RNA [3]; 33 nM),APOE RNA (% UTC) (human APOE RNA [3]; 82 nM),APOE RNA (% UTC) (human APOE RNA [3]; 205 nM),APOE RNA (% UTC) (human APOE RNA [3]; 512 nM),"APOE RNA (% UTC) (human APOE RNA [3]; 1,280 nM)","APOE RNA (% UTC) (human APOE RNA [3]; 3,200 nM)","APOE RNA (% UTC) (human APOE RNA [3]; 8,000 nM)","APOE RNA (% UTC) (human APOE RNA [3]; 20,000 nM)",APOE RNA (% control) Cortex (human APOE RNA [4]; Table 17) [% control],APOE RNA (% control) Spinal Cord (human APOE RNA [4]; Table 17) [% control],APOE RNA (% control) Cortex (human APOE RNA [5]) [% control],APOE RNA (% control) Spinal Cord (human APOE RNA [5]) [% control],APOE RNA (% control) Cortex (human APOE RNA [6]; [11]) [% control],other results
"1693101: 6-10-4 MOE gapmer CTTGGTGAATCTTTATTAAA, linkages sssssozzzssssszssss (e[5mC]*eT*eT*eG*eG*eTdG[ms]dA[ms]dA[ms]dT*d[5mC]*dT*dT*dT*dA[ms]dT*eT*eA*eA*eA) [compound 1693101]",58,46,71,56,4030,70,91,120,111,95,75,53,58,49,20,79,57,62,55,71,"APOE RNA (% control) Cortex (human APOE RNA [6]; [12]): 57 % control; APOE RNA (% control) Spinal Cord (human APOE RNA [6]; [13]): 50 % control; APOE RNA (% control) Spinal Cord (human APOE RNA [6]; [14]): 77 % control; APOE RNA (% control) Cortex (human APOE RNA [6]; cortex, 4 weeks post treatment, normalized to mouse Ppia): 57 % control; APOE RNA (% control) Spinal Cord (human APOE RNA [6]; spinal cord, 4 weeks post treatment, normalized to mouse Ppia): 56 % control"
"Compound No. 785674: kk-9-eeekk cEt gapmer with MOE modifications, TATTTCTGCTCCAGGT, internal standard (sugars from the 5' end k2 d9 e3 k2, backbone and methylation of C not given here)",,,,,,,,,,,,,,,,,,,,,responder class for CCL22 release in the BJAB assay (internal standard) (BJAB cells [7]): high responder (inflammatory)
"1693102: 6-10-4 MOE gapmer CTTGGTGAATCTTTATTAAA, linkages ssssoszzzssssszssss (e[5mC]*eT*eT*eG*eGeT*dG[ms]dA[ms]dA[ms]dT*d[5mC]*dT*dT*dT*dA[ms]dT*eT*eA*eA*eA) [compound 1693102]",58,43,69,41,1170,89,95,87,92,80,64,48,32,22,10,60,45,51,51,61,APOE RNA (% control) Cortex (human APOE RNA [6]; [12]): 55 % control; APOE RNA (% control) Spinal Cord (human APOE RNA [6]; [13]): 48 % control; APOE RNA (% control) Spinal Cord (human APOE RNA [6]; [14]): 72 % control
"Compound No. 1517891: comparator of WO 2022/066956; ACTTGGTGAATCTTTATTAA, sugar eeeeeddddddddddeeeee, linkages sooosssssssssssooss (MOE gapmer, mixed PS/PO linkages, chemistry not fully specified) [reference compound]",56,29,,,,,,,,,,,,,,,,,,,"APOE RNA (% UTC) (human APOE RNA [8]; 5 nM): 82 % UTC; APOE RNA (% UTC) (human APOE RNA [8]; 13 nM): 75 % UTC; APOE RNA (% UTC) (human APOE RNA [8]; 33 nM): 81 % UTC; APOE RNA (% UTC) (human APOE RNA [8]; 82 nM): 83 % UTC; APOE RNA (% UTC) (human APOE RNA [8]; 205 nM): 65 % UTC; APOE RNA (% UTC) (human APOE RNA [8]; 512 nM): 48 % UTC; APOE RNA (% UTC) (human APOE RNA [8]; 1,280 nM): 36 % UTC; APOE RNA (% UTC) (human APOE RNA [8]; 3,200 nM): 36 % UTC; APOE RNA (% UTC) (human APOE RNA [8]; 8,000 nM): 17 % UTC; IC50 (human APOE RNA [8]): 550 nM; APOE RNA (% control) Cortex (human APOE RNA [9]): 93 % control and 97 % control; APOE RNA (% control) Spinal Cord (human APOE RNA [9]): 92 % control and 71 % control; reduction of human APOE RNA in the cortex (human APOE RNA [1]): 44%; inflammatory response in human BJAB cells (BJAB cells [10]): mildly inflammatory; APOE RNA (% control) Cortex (human APOE RNA [4]; Table 16): 49 % control; APOE RNA (% control) Spinal Cord (human APOE RNA [4]; Table 16): 65 % control"
"Compound No. 1517853: comparator of WO 2022/066956; TTGGTGAATCTTTATTAAAC, sugar eeeeeddddddddddeeeee, linkages sooosssssssssssooss (MOE gapmer, mixed PS/PO linkages, chemistry not fully specified) [reference compound]",67,50,,,,,,,,,,,,,,,,,,,APOE RNA (% control) Cortex (human APOE RNA [9]): 99 % control; APOE RNA (% control) Spinal Cord (human APOE RNA [9]): 98 % control; reduction of human APOE RNA in the cortex (human APOE RNA [1]): 33%; inflammatory response in human BJAB cells (BJAB cells [10]): highly inflammatory; APOE RNA (% control) Cortex (human APOE RNA [4]; Table 16): 53 % control; APOE RNA (% control) Spinal Cord (human APOE RNA [4]; Table 16): 65 % control
"Compound No. 353512: 3-14-3 MOE gapmer, TCCCATTTCAGGAGACCTGG, internal standard (sugars from the 5' end e3 d14 e3, backbone and methylation of C not given here)",,,,,,,,,,,,,,,,,,,,,responder class for CCL22 release in the BJAB assay (internal standard) (BJAB cells [7]): high responder (inflammatory)
